# According to PubChem BioAssay AID2060485 (Molecular Pharmacology Branch, DTP, NCI, 2025):
# Test system: A375 multi-cell spheroids with HUVEC/MSC, viability
# Experiment: Anticancer human tumor A375 cell line growth inhibition [GQUAD];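 further: spheroids exposed to compounds for seven days before readout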
# Conditions: for IC50: curve of first compound; for viability, T/C: stronger effect = lower value
# Summary of the method: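 Tumor cells were grown as complex spheroids with HUVEC endothelial cells and mesenchymal stem cells as stroma. G-quadruplex stabilizers were combined with targeted agents over half-log dilutions from near the clinical Cmax, or from 10 microM.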
compound,measurement,setting,value
C#Cc1c(F)ccc2cc(O)cc(-c3ncc4c(N5CC6CCC(C5)N6)nc(OCC56CCCN5CC(F)C6)nc4c3F)c12 (configuration not stated) + CN(C)c1ccc(Nc2c3ccc(NC(=O)CCN4CCCC4)cc3nc3cc(NC(=O)CCN4CCCC4)ccc23)cc1,IC50,second compound 0.0316 µM,> 10 µM
same,IC50,second compound 0.1 µM,> 10 µM
same,IC50,second compound 0.316 µM,> 10 µM
same,IC50,second compound 1 µM,> 10 µM
same,IC50,second compound 3.16 µM,> 10 µM
same,IC50,second compound 10 µM,> 10 µM
same,"viability, T/C","second compound 0.0316 µM, first compound 0.0316 µM",111%
same,"viability, T/C","second compound 0.0316 µM, first compound 0.1 µM",98.5%
same,"viability, T/C","second compound 0.0316 µM, first compound 0.316 µM",101%
same,"viability, T/C","second compound 0.0316 µM, first compound 1 µM",108%
same,"viability, T/C","second compound 0.0316 µM, first compound 3.16 µM",106%
same,"viability, T/C","second compound 0.0316 µM, first compound 10 µM",112%
same,"viability, T/C","second compound 0.1 µM, first compound 0.0316 µM",104%
same,"viability, T/C","second compound 0.1 µM, first compound 0.1 µM",103%
same,"viability, T/C","second compound 0.1 µM, first compound 0.316 µM",105%
same,"viability, T/C","second compound 0.1 µM, first compound 1 µM",108%
same,"viability, T/C","second compound 0.1 µM, first compound 3.16 µM",107%
same,"viability, T/C","second compound 0.1 µM, first compound 10 µM",107%
same,"viability, T/C","second compound 0.316 µM, first compound 0.0316 µM",99.5%
same,"viability, T/C","second compound 0.316 µM, first compound 0.1 µM",98.4%
same,"viability, T/C","second compound 0.316 µM, first compound 0.316 µM",99.3%
same,"viability, T/C","second compound 0.316 µM, first compound 1 µM",109%
same,"viability, T/C","second compound 0.316 µM, first compound 3.16 µM",102%
same,"viability, T/C","second compound 0.316 µM, first compound 10 µM",98.6%
same,"viability, T/C","second compound 1 µM, first compound 0.0316 µM",106%
same,"viability, T/C","second compound 1 µM, first compound 0.1 µM",98%
same,"viability, T/C","second compound 1 µM, first compound 0.316 µM",99.4%
same,"viability, T/C","second compound 1 µM, first compound 1 µM",109%
same,"viability, T/C","second compound 1 µM, first compound 3.16 µM",107%
same,"viability, T/C","second compound 1 µM, first compound 10 µM",98.1%
same,"viability, T/C","second compound 3.16 µM, first compound 0.0316 µM",103%
same,"viability, T/C","second compound 3.16 µM, first compound 0.1 µM",98.7%
same,"viability, T/C","second compound 3.16 µM, first compound 0.316 µM",104%
same,"viability, T/C","second compound 3.16 µM, first compound 1 µM",97.2%
same,"viability, T/C","second compound 3.16 µM, first compound 3.16 µM",102%
same,"viability, T/C","second compound 3.16 µM, first compound 10 µM",103%
same,"viability, T/C","second compound 10 µM, first compound 0.0316 µM",96.6%
same,"viability, T/C","second compound 10 µM, first compound 0.1 µM",102%
same,"viability, T/C","second compound 10 µM, first compound 0.316 µM",96.2%
same,"viability, T/C","second compound 10 µM, first compound 1 µM",96.3%
same,"viability, T/C","second compound 10 µM, first compound 3.16 µM",102%
same,"viability, T/C","second compound 10 µM, first compound 10 µM",102%
